Source: patent publication US11479802B2, “Assays for screening activity of modulators of members of the hydroxy steroid (17-beta) dehydrogenase (HSD17B) family” (Regeneron Pharmaceuticals, Inc., priority 2017, dated 2022)
Where a name gives a salt, the structure may show the parent alone.

Target: T1, human HSD17B13 (Homo sapiens, UniProt Q7Z5P4)
T1 sequence (Q7Z5P4 20-300): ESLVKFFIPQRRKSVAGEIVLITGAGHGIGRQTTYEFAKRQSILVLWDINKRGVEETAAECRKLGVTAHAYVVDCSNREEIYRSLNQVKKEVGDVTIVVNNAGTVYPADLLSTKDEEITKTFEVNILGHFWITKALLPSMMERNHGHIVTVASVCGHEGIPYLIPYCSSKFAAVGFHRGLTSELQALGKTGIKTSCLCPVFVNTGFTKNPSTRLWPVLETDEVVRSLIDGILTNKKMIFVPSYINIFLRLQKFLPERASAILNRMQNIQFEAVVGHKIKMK
Experiment: Substrate screening of steroid and bioactive lipid libraries against purified recombinant HSD17B13 (NADH-linked luciferase assay)
Assay type: biochemical
Settings: for HSD17B13 Enzymatic Activity Relative Light Units: 500 μM NAD+, 100 ng enzyme, 3 hours at 23° C.; for HSD17B13 Enzymatic Activity Percent Estradiol Control: normalized to 50 μM estradiol after subtraction of 5% DMSO
Method: To understand the functional consequences of premature truncation of the HSD17B13 protein due to rs72613567:TA (the associated variant, rs72613567, is an insertion of an adenine adjacent to the donor splice site of exon six (TA allele)), the enzymatic activity of isoforms A and D was evaluated in vitro using recombinant protein and nicotinamide […] dinucleotide as cofactor. Reactions were performed in a final volume of 40 μl of assay buffer (0.2 M Tris-HCl, pH 7.5) which contained 500 μM NAD^+, 5 μM bioactive lipid or 50 μM steroid (all in a final concentration of 5% DMSO), and 100 ng of recombinant human HSD17B13. Reactions were incubated for 3 hours, at 23° C., after which an equal volume detection reagent was added. Following a 1 hour incubation at 23° C., the relative light units (RLUs) were measured on an Envision Plate Reader (Perkin Elmer). Raw RLU values were normalized as percent of control (50 μM estradiol) following subtraction of negative control (5% DMSO) using the following formula: Percent of control (POC)=100×(Sample (RLU)−Negative CTRLaverage)/(Positive CTRLaverage−Negative CTRLaverage).

[1] = Bioactive Lipid Library, 5 μM bioactive lipid (Estradiol Control 50 μM)
[2] = Bioactive Lipid Library, 5 μM bioactive lipid

SMILES: C[C@]12C/C(=C/O)C(=O)C[C@@H]1CC[C@@H]1[C@@H]2CC[C@@]2(C)[C@H]1CC[C@]2(C)O [Oxymetholone]
- HSD17B13 Enzymatic Activity Relative Light Units (Steroid Library, 50 μM steroid): 92000 RLU
- HSD17B13 Enzymatic Activity Percent Estradiol Control (Steroid Library, 50 μM steroid): −1.20%

SMILES: CCCCC/C=C\C[C@@H](O)/C=C/C=C/C=C\[C@@H](O)CCCC(=O)N(C)C [Leukotriene B4 dimethyl amide]
- HSD17B13 Enzymatic Activity Relative Light Units [1]: 1910040 RLU
- HSD17B13 Enzymatic Activity Percent Estradiol Control [2]: 128.60%

SMILES: CC/C=C\C[C@@H](/C=C/C=C\C/C=C\C/C=C\CCCC(=O)O)OO [15(S)-HpEPE]
- HSD17B13 Enzymatic Activity Relative Light Units [1]: 316200 RLU
- HSD17B13 Enzymatic Activity Percent Estradiol Control [2]: 2.18%

SMILES: CC/C=C\C[C@H]1O[C@H]1C/C=C\C/C=C\C/C=C\C/C=C\CCC(=O)O (racemic) [(±)16(17)-EpDPA]
- HSD17B13 Enzymatic Activity Relative Light Units [1]: 274120 RLU
- HSD17B13 Enzymatic Activity Percent Estradiol Control [2]: −0.71%

SMILES: CCC(O)C(O)C/C=C\C/C=C\C/C=C\C/C=C\C/C=C\CCC(=O)O (racemic) [(±)19(20)-DiHDPA]
- HSD17B13 Enzymatic Activity Relative Light Units [1]: 827600 RLU
- HSD17B13 Enzymatic Activity Percent Estradiol Control [2]: 37.95%

SMILES: CCCCC/C=C\C/C=C\C/C=C\C=C\[C@@H]1CCCC(=O)O1 [5(S)-HETE lactone]
- HSD17B13 Enzymatic Activity Relative Light Units [1]: 288400 RLU
- HSD17B13 Enzymatic Activity Percent Estradiol Control [2]: 0.12%

SMILES: CCCCC[C@H](O)/C=C/[C@@H]1[C@H](C/C=C\CC(=O)O)[C@@H](O)C[C@H]1O [2,3-dinor-8-iso Prostaglandin F2α]
- HSD17B13 Enzymatic Activity Relative Light Units [1]: 230040 RLU
- HSD17B13 Enzymatic Activity Percent Estradiol Control [2]: −4.19%

SMILES: CC(=O)S[C@@H]1CC2=CC(=O)CC[C@]2(C)[C@H]2CC[C@@]3(C)[C@@H](CC[C@@]34CCC(=O)O4)[C@H]12 [Spironolactone]
- HSD17B13 Enzymatic Activity Relative Light Units (Steroid Library, 50 μM steroid): 184280 RLU
- HSD17B13 Enzymatic Activity Percent Estradiol Control (Steroid Library, 50 μM steroid): 0.41%

SMILES: C[C@]12CC[C@@H](O)C[C@@H]1CC[C@@H]1[C@@H]2[C@@H](O)C[C@]2(C)C(=O)CC[C@@H]12 [11beta-Hydroxyandrosterone]
- HSD17B13 Enzymatic Activity Relative Light Units (Steroid Library, 50 μM steroid): 224720 RLU
- HSD17B13 Enzymatic Activity Percent Estradiol Control (Steroid Library, 50 μM steroid): 1.12%

SMILES: C[C@]12CCC(=O)C[C@@H]1CC[C@@H]1[C@@H]2CC[C@]2(C)C(=O)CC[C@@H]12 [5a-androstanedione]
- HSD17B13 Enzymatic Activity Relative Light Units (Steroid Library, 50 μM steroid): 181840 RLU
- HSD17B13 Enzymatic Activity Percent Estradiol Control (Steroid Library, 50 μM steroid): 0.37%

SMILES: O=P(O)(O)OC1[C@@H](OP(=O)(O)O)[C@H](O)C(O)[C@@H](O)[C@H]1OP(=O)(O)O (stereo partly drawn) [D-myo-Inositol-3,4,5-triphosphate (sodium salt)]
- HSD17B13 Enzymatic Activity Relative Light Units [1]: 400520 RLU
- HSD17B13 Enzymatic Activity Percent Estradiol Control [2]: 5.70%

SMILES: CCCCC/C=C\C/C=C\C/C=C\C=C\[C@H](CCCC(=O)O)OO [5(S)-HpETE]
- HSD17B13 Enzymatic Activity Relative Light Units [1]: 225600 RLU
- HSD17B13 Enzymatic Activity Percent Estradiol Control [2]: −4.55%

SMILES: CCCCC/C=C\C\C=C/C=C/C=C/[C@@H](SC[C@H](NC(=O)CC[C@@H](N)C(=O)O)C(=O)O)[C@@H](O)CCCC(=O)O [Leukotriene F4]
- HSD17B13 Enzymatic Activity Relative Light Units [1]: 400400 RLU
- HSD17B13 Enzymatic Activity Percent Estradiol Control [2]: 9.27%

SMILES: O=P(O)(O)O[C@@H]1[C@H](OP(=O)(O)O)[C@H](OP(=O)(O)O)[C@@H](O)[C@H](O)[C@H]1OP(=O)(O)O [D-myo-Inositol-1,2,3,6-tetraphosphate (sodium salt)]
- HSD17B13 Enzymatic Activity Relative Light Units [1]: 424280 RLU
- HSD17B13 Enzymatic Activity Percent Estradiol Control [2]: 7.49%

SMILES: CC1(C)[C@@H](O)CC[C@]2(C)[C@H]3C(=O)C=C4[C@@H]5C[C@@](C)(C(=O)O)CC[C@]5(C)CC[C@@]4(C)[C@]3(C)CC[C@@H]12 [18beta-Glycyrrhetinic acid]
- HSD17B13 Enzymatic Activity Relative Light Units (Steroid Library, 50 μM steroid): 32720 RLU
- HSD17B13 Enzymatic Activity Percent Estradiol Control (Steroid Library, 50 μM steroid): −2.23%

SMILES: CCCCC/C=C\CC(O)C(O)CCCCCCCC(=O)O (racemic) [(±)9(10)-DiHOME]
- HSD17B13 Enzymatic Activity Relative Light Units [1]: 391000 RLU
- HSD17B13 Enzymatic Activity Percent Estradiol Control [2]: 4.98%

SMILES: O=P(O)(O)OC1[C@@H](OP(=O)(O)O)[C@H](OP(=O)(O)O)C(O)[C@H](OP(=O)(O)O)[C@H]1OP(=O)(O)O (stereo partly drawn) [D-myo-Inositol-1,2,4,5,6-pentaphosphate (sodium salt)]
- HSD17B13 Enzymatic Activity Relative Light Units [1]: 398080 RLU
- HSD17B13 Enzymatic Activity Percent Estradiol Control [2]: 5.52%

SMILES: CCCCC/C=C\C/C=C\C=C\[C@@H](O)CCCCCCC(=O)O [8(S)-HETrE]
- HSD17B13 Enzymatic Activity Relative Light Units [1]: 412960 RLU
- HSD17B13 Enzymatic Activity Percent Estradiol Control [2]: 9.38%

SMILES: O=C(O)CCCCC(=O)CC[C@H]1[C@H](O)CC(=O)[C@@H]1CCC(=O)O [tetranor-PGEM]
- HSD17B13 Enzymatic Activity Relative Light Units [1]: 348440 RLU
- HSD17B13 Enzymatic Activity Percent Estradiol Control [2]: 5.17%

SMILES: CCCCC(C)(O)C/C=C/[C@H]1[C@@H](O)CC(=O)[C@@H]1CCCCCCC(=O)OC (stereo partly drawn) [11β-Misoprostol]
- HSD17B13 Enzymatic Activity Relative Light Units [1]: 331200 RLU
- HSD17B13 Enzymatic Activity Percent Estradiol Control [2]: 3.80%

SMILES: CCCCC[C@@H](O)/C=C/C=C\CCCCCCCCCC(=O)O [15(R)-HEDE]
- HSD17B13 Enzymatic Activity Relative Light Units [1]: 1862960 RLU
- HSD17B13 Enzymatic Activity Percent Estradiol Control [2]: 117.20%

SMILES: CCCCC/C=C\C/C=C\CC(O)/C=C/C=C\CCCC(=O)O (racemic) [(±)9-HETE]
- HSD17B13 Enzymatic Activity Relative Light Units [1]: 1110120 RLU
- HSD17B13 Enzymatic Activity Percent Estradiol Control [2]: 61.22%

SMILES: C[C@]12CCC(=O)C=C1CC[C@@H]1[C@@H]2[C@@H](O)C[C@]2(C=O)[C@@H](C(=O)CO)CC[C@@H]12 [Aldosterone]
- HSD17B13 Enzymatic Activity Relative Light Units (Steroid Library, 50 μM steroid): 217400 RLU
- HSD17B13 Enzymatic Activity Percent Estradiol Control (Steroid Library, 50 μM steroid): 0.99%

SMILES: CC/C=C\C/C=C\C/C=C\C=C\C(O)C/C=C\C/C=C\CCC(=O)O (racemic) [(±)10-HDHA]
- HSD17B13 Enzymatic Activity Relative Light Units [1]: 801680 RLU
- HSD17B13 Enzymatic Activity Percent Estradiol Control [2]: 38.28%

SMILES: CCCCC[C@@H](/C=C/C=C\CCCCCCCC(=O)O)OO [13(S)-HpODE]
- HSD17B13 Enzymatic Activity Relative Light Units [1]: 183040 RLU
- HSD17B13 Enzymatic Activity Percent Estradiol Control [2]: −7.72%

SMILES: CC/C=C\C/C=C\C=C\C(O)C/C=C\C/C=C\C/C=C\CCC(=O)O (racemic) [(±)13-HDHA]
- HSD17B13 Enzymatic Activity Relative Light Units [1]: 1154720 RLU
- HSD17B13 Enzymatic Activity Percent Estradiol Control [2]: 64.54%

SMILES: CC/C=C\C[C@H](O)/C=C/[C@H]1OC(=O)C[C@H](O)[C@@H]1C/C=C\CCCC(=O)O [11-dehydro Thromboxane B3]
- HSD17B13 Enzymatic Activity Relative Light Units [1]: 322480 RLU
- HSD17B13 Enzymatic Activity Percent Estradiol Control [2]: 3.11%

SMILES: CCCCCC(=O)/C=C/[C@H]1C(O)CC(=O)[C@H]1C/C=C\CCCC(=O)O (stereo partly shown) [8-iso-15-keto Prostaglandin E2]
- HSD17B13 Enzymatic Activity Relative Light Units [1]: 262160 RLU
- HSD17B13 Enzymatic Activity Percent Estradiol Control [2]: −1.65%

SMILES: C[C@@H](O)CCC[C@H](O)CC[C@H]1[C@H](O)CC(=O)[C@@H]1CCCCCCC(=O)O [13,14-dihydro-19(R)-hydroxy Prostaglandin E1]
- HSD17B13 Enzymatic Activity Relative Light Units [1]: 337040 RLU
- HSD17B13 Enzymatic Activity Percent Estradiol Control [2]: 4.26%
